Measured values: ChEMBL document CHEMBL1201862, “PubChem BioAssay data set” (2004)
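Step 1: Grow cells in 96-well plates. Step 2: Expose to compound for 48 hours at 5 concentrations. Step 3: Interpolate endpoints linearly; if unreached, use highest concentration. GI50 is the concentration that inhibits growth by half.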 Active and inactive are the calls of the source. Cut-off read from the data, not from the text of the source: active = GI50 up to about 1.1 µM and inactive = higher.

Tests used:
Assay in all cases: DTP human tumour cell line panel, 48 h
TK-10 = system: TK-10
786-0 = system: 786-0
EKVX = system: EKVX
CCRF-CEM = system: CCRF-CEM
HL-60 = system: HL-60
UACC-257 = system: UACC-257
SK-OV-3 = system: SK-OV-3
UO-31 = system: UO-31
LOX IMVI = system: LOX IMVI
SF-295 = system: SF-295
SNB-75 = system: SNB-75
HOP-92 = system: HOP-92
NCI/ADR-RES = system: NCI/ADR-RES
SF-539 = system: SF-539
M19-MEL = system: M19-MEL
SK-MEL-5 = system: SK-MEL-5
HOP-62 = system: HOP-62
DU-145 = system: DU-145
RXF 393 = system: RXF 393
HCT-15 = system: HCT-15
MDA-MB-231 = system: MDA-MB-231
HOP-18 = system: HOP-18
SK-MEL-28 = system: SK-MEL-28
MCF7 = system: MCF7
OVCAR-5 = system: OVCAR-5
SR = system: SR
IGROV-1 = system: IGROV-1
MOLT-4 = system: MOLT-4
SN12C = system: SN12C
K562 = system: K562
OVCAR-3 = system: OVCAR-3
A498 = system: A498
ACHN = system: ACHN
OVCAR-8 = system: OVCAR-8
HCT-116 = system: HCT-116
XF498 = system: XF498
NCI-H23 = system: NCI-H23
T47D = system: T47D
DMS-114 = system: DMS-114
SNB-19 = system: SNB-19
NCI-H522 = system: NCI-H522
SNB-78 = system: SNB-78
CAKI-1 = system: CAKI-1
DMS-273 = system: DMS-273
LXFL 529 = system: LXFL 529
NCI-H460 = system: NCI-H460
UACC-62 = system: UACC-62
MDA-N = system: MDA-N
NCI-H226 = system: NCI-H226
Malme-3M = system: Malme-3M
PC-3 = system: PC-3
SK-MEL-2 = system: SK-MEL-2
DLD-1 = system: DLD-1
HT-29 = system: HT-29
U-251 = system: U-251
OVCAR-4 = system: OVCAR-4
HCC 2998 = system: HCC 2998
BT-549 = system: BT-549
SF-268 = system: SF-268
Hs-578T = system: Hs-578T
KM-20L2 = system: KM-20L2
MDA-MB-435 = system: MDA-MB-435
M14 = system: M14
SW-620 = system: SW-620
A549 = system: A549

Structure (SMILES): O=S(=O)(O)c1cc(/N=N/c2cc(S(=O)(=O)O)c3ccccc3c2O)ccc1/C=C/c1ccc(/N=N/c2cc(S(=O)(=O)O)c3ccccc3c2O)cc1S(=O)(=O)O
- GI50 (TK-10): 24.9 µM (inactive)
- GI50 (786-0): > 684 µM (inactive)
- GI50 (EKVX): > 399 µM (inactive)
- GI50 (CCRF-CEM): 20.6 µM (inactive)
- GI50 (HL-60): 18.2 µM (inactive)
- GI50 (UACC-257): > 291 µM (inactive)
- GI50 (SK-OV-3): > 630 µM (inactive)
- GI50 (UO-31): > 367 µM (inactive)
- GI50 (LOX IMVI): > 305 µM (inactive)
- GI50 (SF-295): > 462 µM (inactive)
- GI50 (SNB-75): > 458 µM (inactive)
- GI50 (HOP-92): > 80.9 µM (inactive)
- GI50 (NCI/ADR-RES): 427 µM (inactive)
- GI50 (SF-539): > 386 µM (inactive)
- GI50 (M19-MEL): > 100 µM (inactive)
- GI50 (SK-MEL-5): 86.7 µM (inactive)
- GI50 (HOP-62): > 668 µM (inactive)
- GI50 (DU-145): 303 µM (inactive)
- GI50 (RXF 393): > 771 µM (inactive)
- GI50 (HCT-15): 98.6 µM
- GI50 (MDA-MB-231): 27.3 µM (inactive)
- GI50 (HOP-18): > 100 µM (inactive)
- GI50 (SK-MEL-28): 594 µM (inactive)
- GI50 (MCF7): 310 µM (inactive)
- GI50 (OVCAR-5): 146 µM (inactive)
- GI50 (SR): 27 µM (inactive)
- GI50 (IGROV-1): > 399 µM (inactive)
- GI50 (MOLT-4): 22.8 µM (inactive)
- GI50 (SN12C): > 743 µM (inactive)
- GI50 (K562): 30.1 µM (inactive)
- GI50 (OVCAR-3): > 553 µM (inactive)
- GI50 (A498): > 100 µM (inactive)
- GI50 (ACHN): > 483 µM (inactive)
- GI50 (OVCAR-8): > 755 µM (inactive)
- GI50 (HCT-116): > 213 µM (inactive)
- GI50 (XF498): > 100 µM (inactive)
- GI50 (NCI-H23): > 537 µM (inactive)
- GI50 (T47D): 497 µM (inactive)
- GI50 (DMS-114): > 100 µM (inactive)
- GI50 (SNB-19): > 733 µM (inactive)
- GI50 (NCI-H522): > 492 µM (inactive)
- GI50 (SNB-78): > 100 µM (inactive)
- GI50 (CAKI-1): > 574 µM (inactive)
- GI50 (DMS-273): > 83 µM (inactive)
- GI50 (LXFL 529): > 1000 µM (inactive)
- GI50 (NCI-H460): > 437 µM (inactive)
- GI50 (UACC-62): > 312 µM (inactive)
- GI50 (MDA-N): 151 µM (inactive)
- GI50 (NCI-H226): 270 µM (inactive)
- GI50 (Malme-3M): > 333 µM (inactive)
- GI50 (PC-3): 150 µM (inactive)
- GI50 (SK-MEL-2): > 371 µM (inactive)
- GI50 (DLD-1): > 100 µM (inactive)
- GI50 (HT-29): > 457 µM (inactive)
- GI50 (U-251): > 716 µM (inactive)
- GI50 (OVCAR-4): > 86.5 µM (inactive)
- GI50 (HCC 2998): > 100 µM (inactive)
- GI50 (BT-549): 284 µM (inactive)
- GI50 (SF-268): > 800 µM (inactive)
- GI50 (Hs-578T): 499 µM (inactive)
- GI50 (KM-20L2): > 100 µM (inactive)
- GI50 (MDA-MB-435): 111 µM (inactive)
- GI50 (M14): 131 µM (inactive)
- GI50 (SW-620): > 605 µM (inactive)
- GI50 (A549): > 480 µM (inactive)
